How the values were obtained:
[1] = target: T1, TNIK kinase [amino acid sequence (1-367), Invitrogen] (Homo sapiens, UniProt Q9UKE5); assay: TNIK kinase inhibition assay (Z-lyte FRET-peptide); assay type: biochemical; conditions: 0.625 nM TNIK kinase, 2 μM Ser/Thr 7 peptide, 64 μM ATP, one hour at room temperature
T1 construct: purchased Invitrogen
Protocol: Z-lyte assay kit was purchased from Invitrogen. A site-specific protease recognizes and cleaves non-phosphorylated FRET-peptides. Phosphorylation of FRET-peptides suppresses cleavage by protease and will maintain FRET from donor to acceptor.
5 μl of Development Reagent A solution was then added to cleave non-phosphorylated peptide with a dilution 1:65000 in Development Buffer B. The assay plate was incubated at room temperature for another one hour and then read in the Envision plate reader (PerkinElmer).

[2] = Metabolic stability in human liver microsomes; assay type: in vitro ADME; conditions: LM Clint (intrinsic clearance); 1 μM test compound, 0.5 mg protein/mL microsome, 37° C., up to 60 min
Protocol: 2.1. Test Compound and Control Working Solution Preparation: Working solution: 5 µL of compound and control stock solution (10 mM in dimethyl sulfoxide (DMSO)) were diluted with 495 μL of acetonitrile (ACN) (intermediate solution concentration: 100 μM, 99% ACN).
2.2.1. […] 2.2.2. Preparation Procedure: The appropriate amount of NADPH powder were weighed and diluted into a 10 mM MgCl2 solution (working solution concentration: 10 unit/mL; final concentration in reaction system: 1 unit/mL).
2.3.2. Preparation Procedure: The appropriate concentrations of microsome working solutions were prepared in 100 mM potassium phosphate buffer. 2.4. Stop Solution Preparation: Cold (4° C.) acetonitrile (ACN) containing 200 ng/mL tolbutamide and 200 ng/mL labetalol as internal standards (IS) were used as the stop solution.
2.5.1. Pre-warm empty ‘Incubation’ plates T60 and NCF60 for 10 min minutes. 2.5.2. Liver microsomes were diluted to 0.56 mg/mL in 100 mM phosphate buffer. 2.5.3. 445 uL microsome working solutions (0.56 mg/mL) were transferred into pre-warmed ‘Incubation’ plates T60 and NCF60. Then ‘Incubation’ plates T60 and NCF60 were pre-incubated for 10 min at 37° C. with constant shaking. 54 μL liver microsomes were transferred to blank plate, then 6 μL NAPDH cofactor were added to the blank plate, and then 180 μL quenching solution can be added to blank plate. 2.5.4 5 μL compound working solution (100 μM) were added into ‘incubation’ plates (T60 and NCF60) containing microsomes and mix 3 times thoroughly. 2.5.5. For the NCF60 plate, 50 uL of buffer were added and were mixed 3 times thoroughly. Start timing; plate was incubated at 37° C. for 60 min while shaking. 2.5.6. In ‘Quenching’ plate TO, 180 μL quenching solution were added and 6 μL NAPDH cofactor were added. Ensured the plate was chilled to prevent evaporation. 2.5.7. For the T60 plate, were mixed 3 times thoroughly, and immediately removed 54 μL mixture for the 0-min time point to ‘Quenching’ plate. Then 44 μL NAPDH cofactor were added to incubation plate (T60). Start timing; plate were incubated at 37° C. for 60 min while shaking.
2.5.8. At 5, 10, 20, 30, and 60 min, 180 μL quenching solution were added to ‘Quenching’ plates, mix once, and were serially transferred 60 μL sample from T60 plate per time point to ‘Quenching’ plates.
2.5.9. For NCF60: were mixed once, and 60 μL sample were transferred from the NCF60 incubation to ‘Quenching’ plate containing quenching solution at the 60-min time point.
2.5.10. All sampling plates were shaken for 10 min, then centrifuged at 4000 rpm for 20 minutes at 4° C. 2.5.11. 80 μL supernatant were transferred into 240 μL HPLC water, and were mixed by plate shaker for 10 min. 2.5.12. Each bioanalysis plate were sealed and shaken for 10 minutes prior to LC-MS/MS analysis.
3.1. The equation of first order kinetics were used to calculate T1/2 and Intrinsic clearance (CLint mic) in (μL/min/mg).
Equation of first order kinetic.

T1 sequence (Q9UKE5 1-367): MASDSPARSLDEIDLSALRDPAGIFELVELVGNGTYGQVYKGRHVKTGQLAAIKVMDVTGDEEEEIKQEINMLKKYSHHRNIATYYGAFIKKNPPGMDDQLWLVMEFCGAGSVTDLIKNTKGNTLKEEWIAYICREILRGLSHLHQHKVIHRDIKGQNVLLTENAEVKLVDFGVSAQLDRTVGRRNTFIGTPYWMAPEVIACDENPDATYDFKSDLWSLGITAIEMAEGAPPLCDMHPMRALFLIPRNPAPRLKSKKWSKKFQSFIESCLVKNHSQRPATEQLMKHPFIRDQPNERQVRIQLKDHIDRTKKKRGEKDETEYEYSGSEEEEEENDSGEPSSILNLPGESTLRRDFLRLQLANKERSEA

Row | SMILES | IC50 [1] [µM] | Human Liver Microsome (μM/min/mg) [2]
1 | CC(C)c1onc(-c2ccc(F)cc2)c1-c1nc(C(=O)Nc2ccc(C3CN(C)C3)cn2)cs1 [Compound 90, 2-(3-(4-fluorophenyl)-5-isopropylisoxazol-4-yl)-N-(5-(1-methylazetidin-3-yl)pyridin-2-yl)thiazole-4-carboxamide] | 0.001 to 0.012 | ++ (10-100 μM/min/mg as ++)
2 | CC(C)n1cnc(-c2ccc(F)cc2)c1-c1nc(C(=O)Nc2ccc(C3COC3)cn2)c[nH]1 [Compound 54, 5′-(4-fluorophenyl)-3′-isopropyl-N-(5-(oxetan-3-yl)pyridin-2-yl)-1H,3′H-[2,4′-biimidazole]-4-carboxamide] | 0.001 to 0.012 | ++ (10-100 μM/min/mg as ++)
3 | CC(C)n1cnc(-c2ccc(F)cc2)c1-c1nc(C(=O)Nc2ccc(N3CC(N(C)C)C3)cn2)cs1 [Compound 64, N-(5-(3-(dimethylamino)azetidin-1-yl)pyridin-2-yl)-2-(4-(4-fluorophenyl)-1-isopropyl-1H-imidazol-5-yl)thiazole-4-carboxamide] | 0.001 to 0.012 | + (>100 μM/min/mg as +)
4 | CC(C)c1onc(-c2ccc(F)cc2)c1-c1nc(C(=O)Nc2ccc(C3COC3)cn2)cs1 [Compound 94, 2-(3-(4-fluorophenyl)-5-isopropylisoxazol-4-yl)-N-(5-(oxetan-3-yl)pyridin-2-yl)thiazole-4-carboxamide] | 0.001 to 0.012 | ++ (10-100 μM/min/mg as ++)
5 | CC(C)n1cnc(-c2ccc(F)cc2)c1-c1nc(C(=O)Nc2ccc(C3CN(C)C3)cn2)co1 [Compound 102, 2-(4-(4-fluorophenyl)-1-isopropyl-1H-imidazol-5-yl)-N-(5-(1-methylazetidin-3-yl)pyridin-2-yl)oxazole-4-carboxamide] | 0.012 to 0.15 | ++ (10-100 μM/min/mg as ++)
6 | CC(C)n1cnc(-c2ccc(F)cc2)c1-c1nc(C(=O)Nc2ccc(N3CCN(C)CC3)cc2)cs1 [Compound 2, 2-(4-(4-fluorophenyl)-1-isopropyl-1H-imidazol-5-yl)-N-(4-(4-methylpiperazin-1-yl)phenyl)thiazole-4-carboxamide] | 0.001 to 0.012 | ++ (10-100 μM/min/mg as ++)
7 | CC(C)n1cnc(-c2ccc(F)cc2)c1-c1nc(C(=O)Nc2ccc(N3CC4CC(C3)N4C)cn2)cs1 [Compound 44, 2-(4-(4-fluorophenyl)-1-isopropyl-1H-imidazol-5-yl)-N-(5-(6-methyl-3,6-diazabicyclo[3.1.1]heptan-3-yl)pyridin-2-yl)thiazole-4-carboxamide] | 0.001 to 0.012 | ++ (10-100 μM/min/mg as ++)
8 | O=C(Nc1ccc(N2CCC2)cn1)c1csc(-c2c(-c3ccc(F)cc3)ncn2C2CC(F)(F)C2)n1 [Compound 68, N-(5-(azetidin-1-yl)pyridin-2-yl)-2-(1-(3,3-difluorocyclobutyl)-4-(4-fluorophenyl)-1H-imidazol-5-yl)thiazole-4-carboxamide] | 0.001 to 0.012 | ++ (10-100 μM/min/mg as ++)
9 | CN1[C@@H]2CC[C@H]1CN(c1ccc(NC(=O)c3csc(-c4c(-c5ccc(F)cc5)ncn4C4COC4)n3)nc1)C2 [Compound 51, 2-(4-(4-fluorophenyl)-1-(oxetan-3-yl)-1H-imidazol-5-yl)-N-(5-((1R,5S)-8-methyl-3,8-diazabicyclo[3.2.1]octan-3-yl)pyridin-2-yl)thiazole-4-carboxamide] | 0.001 to 0.012 | ++ (10-100 μM/min/mg as ++)
10 | CC(C)n1cnc(-c2ccc(F)cc2)c1-c1nc(C(=O)Nc2ccc(C3COC3)cc2F)c[nH]1 [Compound 55, N-(2-fluoro-4-(oxetan-3-yl)phenyl)-5′-(4-fluorophenyl)-3′-isopropyl-1H,3′H-[2,4′-biimidazole]-4-carboxamide] | 0.001 to 0.012 | ++ (10-100 μM/min/mg as ++)
11 | [2H]C([2H])([2H])N1CC(c2ccc(NC(=O)c3nc(-c4c(-c5ccc(F)cc5)ncn4C(C)C)cs3)nc2)C1 [Compound 130, 4-[5-(4-fluorophenyl)-3-isopropyl-imidazol-4-yl]-N-[5-[1-(trideuteriomethyl)azetidin-3-yl]-2-pyridyl]thiazole-2-carboxamide] | – | ++ (10-100 μM/min/mg as ++)
12 | O=C(Nc1ccc(N2CCOCC2)cn1)c1c[nH]c(-c2c(-c3ccc(F)cc3)ncn2C2COC2)n1 [Compound 72, 5′-(4-fluorophenyl)-N-(5-morpholinopyridin-2-yl)-3′-(oxetan-3-yl)-1H,3′H-[2,4′-biimidazole]-4-carboxamide] | – | ++ (10-100 μM/min/mg as ++)
13 | CC(C)n1cnc(-c2ccc(F)cc2)c1-c1ncc(C(=O)Nc2ccc(N3CCN(C)CC3)cc2)s1 [Compound 3, 2-(4-(4-fluorophenyl)-1-isopropyl-1H-imidazol-5-yl)-N-(4-(4-methylpiperazin-1-yl)phenyl)thiazole-5-carboxamide] | > 0.15 | –
14 | O=C(Nc1ccc(N2CCC2)cn1)c1csc(-c2c(-c3ccc(F)cc3)ncn2C2COC2)n1 [Compound 75, N-(5-(azetidin-1-yl)pyridin-2-yl)-2-(4-(4-fluorophenyl)-1-(oxetan-3-yl)-1H-imidazol-5-yl)thiazole-4-carboxamide] | 0.001 to 0.012 | –
15 | CN1CCN(c2ccc(NC(=O)c3c[nH]c(-c4c(-c5ccc(F)cc5)ncn4C4CC4)n3)cc2)CC1 [Compound 15, 3′-cyclopropyl-5′-(4-fluorophenyl)-N-(4-(4-methylpiperazin-1-yl)phenyl)-1H,3′H-[2,4′-biimidazole]-4-carboxamide] | 0.012 to 0.15 | –
16 | O=C(Nc1ccc(N2CCCC2)cn1)c1c[nH]c(-c2c(-c3ccc(F)cc3)ncn2C2CC(F)(F)C2)n1 [Compound 76, 3′-(3,3-difluorocyclobutyl)-5′-(4-fluorophenyl)-N-(5-(pyrrolidin-1-yl)pyridin-2-yl)-1H,3′H-[2,4′-biimidazole]-4-carboxamide] | 0.012 to 0.15 | –
17 | CN1C2CC1CN(c1ccc(NC(=O)c3coc(-c4c(-c5ccc(F)cc5)ncn4C4CC(F)(F)C4)n3)c(F)c1)C2 [Compound 103, 2-(1-(3,3-difluorocyclobutyl)-4-(4-fluorophenyl)-1H-imidazol-5-yl)-N-(2-fluoro-4-(6-methyl-3,6-diazabicyclo[3.1.1]heptan-3-yl)phenyl)oxazole-4-carboxamide] | 0.001 to 0.012 | –
18 | CN1CCN(c2ccc(NC(=O)c3csc(-c4c(-c5ccc(F)cc5)nc5n4CCOC5)n3)nc2)CC1 [Compound 29, 2-(2-(4-fluorophenyl)-6,8-dihydro-5H-imidazo[2,1-c][1,4]oxazin-3-yl)-N-(5-(4-methylpiperazin-1-yl)pyridin-2-yl)thiazole-4-carboxamide] | 0.001 to 0.012 | –
19 | [2H]C([2H])([2H])N1CC(c2ccc(NC(=O)c3nc(-c4c(-c5ccc(F)cc5)ncn4C(C)C)cs3)c(F)c2)C1 [Compound 131, 4-[5-(4-fluorophenyl)-3-isopropyl-imidazol-4-yl]-N-[2-fluoro-4-[1-(trideuteriomethyl)azetidin-3-yl]phenyl]thiazole-2-carboxamide] | – | ++ (10-100 μM/min/mg as ++)
20 | CC(C)n1cnc(-c2ccc(F)cc2)c1-c1nc(C(=O)Nc2ccc(N3C[C@H]4CC[C@@H](C3)N4C)nc2)c[nH]1 [Compound 25, 5′-(4-fluorophenyl)-3′-isopropyl-N-(6-((1R,5S)-8-methyl-3,8-diazabicyclo[3.2.1]octan-3-yl)pyridin-3-yl)-1H,3′H-[2,4′-biimidazole]-4-carboxamide] | 0.001 to 0.012 | –
21 | Cc1cc(NC(=O)c2cnc(-c3c(-c4ccc(F)cc4)ncn3C(C)C)[nH]2)ccc1N1CCN(C)CC1 [Compound 18, 5′-(4-fluorophenyl)-3′-isopropyl-N-(3-methyl-4-(4-methylpiperazin-1-yl)phenyl)-1H,3′H-[2,4′-biimidazole]-5-carboxamide] | 0.012 to 0.15 | –
